Results taken from patent publication US20040265368A1, “Combination compositions of camptothecins and fluoropyrimidines” (priority 2003, published 2004).

Tests used:
[1] = test system: human Capan-1 pancreatic tumor cells; assay: Capan-1 pancreatic xenograft antitumor activity; assay type: in vivo, SCID-Rag2M mice; settings: i.v., Q7D × 3, tumors to reach 500 mg
Experimental: (§1) Briefly, in order to perform tumor studies on mice, animals are inoculated with tumor cells which are then allowed to grow to sufficient size. Using a 28 g needle, mice are inoculated subcutaneously with 1-2×10^6 tumor cells on day 0 (one inoculum/mouse) in a volume of 50 μL.
(§2) When tumors reach a defined size of approximately 100 mm^3 to 200 mm^3, either one-day prior to treatment or on the day of treatment, all tumors are measured. After selecting the appropriate tumor sizes, excluding tumors too small or large, the tumors are randomly distributed (n=6) and the mean tumor volume of the groups are determined. Mice are organized into appropriate treatment groups consisting of control and treatment groups such as for example, saline control, liposome control, positive control and various dilutions of test articles.
(§3) Mice are injected intravenously with the required volume of sample to administer the prescribed dose (10 μL/g as indicated) to the animals based on individual mouse weights.
(§4) Tumor growth measurements are monitored using vernier calipers beginning on the day of treatment. Tumor length measurements (mm) are made from the longest axis and width measurements (mm) will be perpendicular to this axis. From the length and width measurements tumor volumes (cm^3) are calculated according to the equation (L×W^2/2. Animal weights and in-life observations are collected at the time of tumor measurement.
(§5) In particular, signs of ill health are based on body weight loss, change in appetite, rough coat, lack of grooming, behavioral changes such as altered gait, lethargy and gross manifestations of stress. Should signs of severe toxicity or tumor-related illness be seen, the animals are euthanized (CO2 asphyxiation) and a necropsy is performed to assess other signs of toxicity. Moribund animals are terminated for humane reasons and the decision to terminate is at the discretion of the Study Director/Manager and the Animal Care Technician. Any and all of these findings will be recorded as raw data and the time of death will be logged as the following day.
(§6) Xenograft tumors were allowed to grow until they measured to be approximately 150 mg (150 mm^3) in size, and the murine tumors were grown to approximately 100 mg (100 mm^3), at which time the indicated formulations were injected. Tumor growth was determined by direct caliper measurements. […] Antitumor activity was quantitated by calculating the percent tumor growth delay and log cell kill. Percent tumor growth delay is defined as the time in days taken for treated tumors to reach the specified evaluation size as a percent of control (T−C/C×100) where T is the treatment tumors and C is the control tumors in days. […] A log cell kill of +6 indicates a 99.9999% reduction in the cell population.

[2] = test system: human HT-29 colon adenocarcinoma; assay: HT-29 colorectal xenograft antitumor activity; settings: i.v., Q7D × 3, tumors to reach 400 mg
Experimental: as §1, §2, §3, §4, §5, §6

| SMILES | Log cell kill ([1]; dose 250 mg/kg) | Percent tumor growth delay [(T − C ÷ C) × 100] ([1]; dose 250 mg/kg) [%] | Tumor growth delay ([1]; dose 250 mg/kg) [days] | Log cell kill ([2]; dose 250 mg/kg) | Percent tumor growth delay [(T − C ÷ C) × 100] ([2]; dose 250 mg/kg) [%] | Tumor growth delay ([2]; dose 250 mg/kg) [days] | Percent tumor growth delay [(T − C ÷ C) × 100] ([2]; dose 250 mg/kg, listed as free FUDR) [%] | Log cell kill ([1]; dose 100 mg/kg) | Percent tumor growth delay [(T − C ÷ C) × 100] ([1]; dose 100 mg/kg) [%] | Tumor growth delay ([1]; dose 100 mg/kg) [days] | Log cell kill ([2]; dose 100 mg/kg) | Percent tumor growth delay [(T − C ÷ C) × 100] ([2]; dose 100 mg/kg) [%] | Tumor growth delay ([2]; dose 100 mg/kg) [days] | Percent tumor growth delay [(T − C ÷ C) × 100] ([2]; dose 100 mg/kg, listed as free CPT-11, 100 mg/kg) [%] |
| --- | --- | --- | --- | --- | --- | --- | --- | --- | --- | --- | --- | --- | --- | --- |
| O=c1[nH]c(=O)n([C@H]2C[C@H](O)[C@@H](CO)O2)cc1F [Free Flox, fluorodeoxyuridine] | 0.43 | 23 | 10 | 0.09 | 8 | 2 | 8 | – | – | – | – | – | – | – |
| CCc1c2c(nc3ccc(OC(=O)N4CCC(N5CCCCC5)CC4)cc13)-c1cc3c(c(=O)n1C2)COC(=O)[C@]3(O)CC [Free Irino, irinotecan] | – | – | – | – | – | – | – | 0.65 | 35 | 15 | 0.09 | 8 | 2 | 8 |
